According to patent publication US20210309658A1, “ARYL COMPOUNDS FOR THE TREATMENT AND PROPHYLAXIS OF BACTERIAL INFECTION” (Hoffmann-La Roche Inc., priority 2018, published 2021):
In brackets after ≈: the same amount, converted by molar mass. Like-named read-outs stand apart in the source and are kept apart here.

Tests used:
Format in all cases: cell-based
E. coli (BW25113) = experiment: 50% growth inhibitory concentration (IC50) determination assay, E. coli; details: Escherichia coli, read-out: IC50 (μM) E. coli K12 BW25113
Protocol: (§1) The in vitro antimicrobial activity of the compounds against E. coli (BW25113, obtained from Coli Genetic Stock Center, #7636) and K. pneumoniae (ATCC10031) was determined according to the following procedure:
(§2) The assay used a 10-points Iso-Sensitest broth medium to measure quantitatively the in vitro activity of the compounds against E. coli BW25113 and K. pneumoniae ATCC 10031.
(§3) Stock compounds in DMSO were serially two-fold diluted (range from 50 to 0.097 μM final concentration) in 384 wells microtiter plates and inoculated with 49 μL the bacterial suspension in Iso-Sensitest broth medium to have a final cell concentration of ˜5×10^5 CFU/mL in a final volume/well of 50 μL/well. Microtiter plates were incubated at 35±2° C.
(§4) Bacterial cell growth was determined with the measurement of optical density at λ=600 nm each 20 minutes over a time course of 16 h.
(§5) Growth inhibition was calculated during the logarithmic growth of the bacterial cells with determination of the concentration inhibiting 50% (IC50) of the growth.

[1] = tested on: K. pneumoniae (ATCC10031); experiment: 50% growth inhibitory concentration (IC50) determination assay, K. pneumoniae; details: Klebsiella pneumoniae, read-out: IC50 (μM) K. pneumoniae ATCC10031
Protocol: as §1, §2, §3, §4, §5

E. coli (ATCC 25922) = experiment: Minimal Inhibitory Concentration (MIC) assay; details: Escherichia coli, ATCC25922; CAMHB, 20 hours at 35° C.; read-out: MIC (μg/mL) E. coli ATCC 25922
Protocol: The in vitro potency of compounds to inhibit E. coli (ATCC 25922) growth was assessed by MIC (Minimal Inhibitory Concentration) assay. Samples were prepared from 10 mM DMSO stock solutions. After serial 2-fold dilution in DMSO in a master plate (Greiner, Cat No: 651201), 180 μL sterile distilled water was added to 20 μL each aliquot of the samples. Then 10 μL diluted compounds were transferred into a new assay plate (Costar, 3599).
The growth medium […] Mueller Hinton Broth (CAMHB) was prepared by adding the 20 mg per liter CaCl2 and 20 mg per liter MgCl2 into the MHB medium (Jianglai Company, sterilized).
Vials of each of the test microorganisms were maintained frozen in the vapor phase of a liquid nitrogen freezer. Took out the bacteria E. coli ATCC 25922 (KWIKSTIK, 0335K) from liquid nitrogen freezer, thawed it in room temperature, and diluted the bacterial in the CAMHB medium to achieve a final inoculum of 5×10^5 CFU/mL, 90 μL CAMHB with bacteria was dispensed to the assay plate and pipetted 5 times.
Then the assay plates were incubated for 20 hours at 35° C. in ambient air. Following incubation, the MIC (μg/mL), the lowest concentration of drug that inhibits visible growth of the microorganism was read and recorded throw the microscope.

[2] = BW25113, growth inhibition, Iso-Sensitest broth, OD 600 nm over 16 h
[3] = ATCC10031, growth inhibition, Iso-Sensitest broth, OD 600 nm over 16 h, * = detection limit

IC50 (E. coli (BW25113); [2]) [µM] | IC50 [1, 3] [µM] | MIC (E. coli (ATCC 25922)) [µg/mL] | SMILES | IC50 (E. coli (BW25113); BW25113, 16 h) [µM] | IC50 ([1]; ATCC10031, 16 h) [µM]
1.25 | 0.102 |  | CNc1cc(F)cc2c1[nH]c1ncc(-c3cncc(C#N)c3)c(-n3cc(C(F)(F)F)cn3)c12 [Example 1.08, 5-[6-Fluoro-8-(methylamino)-4-[4-(trifluoromethyl)pyrazol-1-yl]-9H-pyrido[2,3-b]indol-3-yl]pyridine-3-carbonitrile] |  | 
 |  | 0.751 (≈ 1.43 µM) | CCNc1cc(F)cc2c1[nH]c1ncc(-c3cnc(NC4CCOC4)nc3)c(-n3ccc(C(F)(F)F)n3)c12 (centres unmarked) [Example 1.25, N-Ethyl-6-fluoro-3-[2-(tetrahydrofuran-3-ylamino)pyrimidin-5-yl]-4-[3-(trifluoromethyl)pyrazol-1-yl]-9H-pyrido[2,3-b]indol-8-amine] |  | 
 |  | 0.767 (≈ 1.35 µM) | CCNc1cc(F)cc2c1[nH]c1ncc(-c3cncc(C(=O)NC4(COC)CC4)c3)c(-n3ccc(C(F)(F)F)n3)c12 [Example 3.07, 5-[8-(ethylamino)-6-fluoro-4-[3-(trifluoromethyl)pyrazol-1-yl]-9H-pyrido[2,3-b]indol-3-yl]-N-[1-(methoxymethyl)cyclopropyl]pyridine-3-carboxamide] |  | 
 |  |  | CCNc1cc(F)cc2c1[nH]c1ncc(-c3cnc(O[C@@H]4CCNC4)nc3)c(-n3ccc(C(F)(F)F)n3)c12 [Example 1.55, N-ethyl-6-fluoro-3-[2-[(3R)-pyrrolidin-3-yl]oxypyrimidin-5-yl]-4-[3-(trifluoromethyl)pyrazol-1-yl]-9H-pyrido[2,3-b]indol-8-amine] | 1.03 | ≤ 0.098
0.289 | ≤ 0.098 | 0.142 (≈ 0.294 µM) | CCNc1cc(F)cc2c1[nH]c1ncc(-c3cncc(C(N)=O)c3)c(-n3ccc(C(F)(F)F)n3)c12 [Example 1.15, 5-[8-(Ethylamino)-6-fluoro-4-[3-(trifluoromethyl)pyrazol-1-yl]-9H-pyrido[2,3-b]indol-3-yl]pyridine-3-carboxamide] |  | 
1.87 | 0.368 |  | CCNc1cc(F)cc2c1[nH]c1ncc(-c3cnc4c(C#N)cnn4c3)c(-n3ccc(C(F)(F)F)n3)c12 [Example 1.59, 6-[8-(ethylamino)-6-fluoro-4-[3-(trifluoromethyl)pyrazol-1-yl]-9H-pyrido[2,3-b]indol-3-yl]pyrazolo[1,5-a]pyrimidine-3-carbonitrile] |  | 
0.536 | ≤ 0.098 | 0.259 (≈ 0.587 µM) | CCNc1cc(F)cc2c1[nH]c1ncc(-c3cncnc3)c(-n3ccc(C(F)(F)F)n3)c12 [Example 1.12, N-Ethyl-6-fluoro-3-pyrimidin-5-yl-4-[3-(trifluoromethyl)pyrazol-1-yl]-9H-pyrido[2,3-b]indol-8-amine] |  | 
1.56 | 0.159 |  | CCNc1cc(F)cc2c1[nH]c1ncc(-c3cnc(OCC(C)(C)N)nc3)c(-n3ccc(C(F)(F)F)n3)c12 [Example 1.30, 3-[2-(2-Amino-2-methyl-propoxy)pyrimidin-5-yl]-N-ethyl-6-fluoro-4-[3-(trifluoromethyl)pyrazol-1-yl]-9H-pyrido[2,3-b]indol-8-amine] |  | 
0.631 | ≤ 0.098 | 0.284 (≈ 0.585 µM) | CCNc1cc(F)cc2c1[nH]c1ncc(-c3cnc([C@H](C)O)nc3)c(-n3ccc(C(F)(F)F)n3)c12 [Example 1.57, (1S)-1-[5-[8-(ethylamino)-6-fluoro-4-[3-(trifluoromethyl)pyrazol-1-yl]-9H-pyrido[2,3-b]indol-3-yl]pyrimidin-2-yl]ethanol] |  | 
0.422 | 0.098 | 0.534 (≈ 1.17 µM) | CCNc1cc(F)cc2c1[nH]c1ncc(-c3cnc(C)nc3)c(-n3ccc(C(F)(F)F)n3)c12 [Example 1.50] |  | 
0.971 | ≤ 0.098 |  | CCNc1cc(F)cc2c1[nH]c1ncc(-c3cncc(C#N)c3)c(-n3cc(CO)c(C(F)(F)F)n3)c12 [Example 5.01, 5-[8-(ethylamino)-6-fluoro-4-[4-(hydroxymethyl)-3-(trifluoromethyl)pyrazol-1-yl]-9H-pyrido[2,3-b]indol-3-yl]pyridine-3-carbonitrile] |  | 
 |  |  | CCNc1cc(F)cc2c1[nH]c1ncc(-c3cnc(O[C@H]4CCNC4)nc3)c(-n3ccc(C(F)(F)F)n3)c12 [Example 1.56, N-ethyl-6-fluoro-3-[2-[(3S)-pyrrolidin-3-yl]oxypyrimidin-5-yl]-4-[3-(trifluoromethyl)pyrazol-1-yl]-9H-pyrido[2,3-b]indol-8-amine] | 1 | ≤ 0.098
1.29 | 0.105 |  | CCc1ncc(-c2cnc3[nH]c4c(NC)cc(F)cc4c3c2-n2ccc(C(F)(F)F)n2)cn1 [Example 1.47, 3-(2-Ethylpyrimidin-5-yl)-6-fluoro-N-methyl-4-[3-(trifluoromethyl)pyrazol-1-yl]-9H-pyrido[2,3-b]indol-8-amine] |  | 
0.803 | 0.208 | 0.288 (≈ 0.586 µM) | CCNc1cc(F)cc2c1[nH]c1ncc(-c3cnc4cccnc4c3)c(-n3ccc(C(F)(F)F)n3)c12 [Example 1.11, N-Ethyl-6-fluoro-3-(1,5-naphthyridin-3-yl)-4-[3-(trifluoromethyl)pyrazol-1-yl]-9H-pyrido[2,3-b]indol-8-amine] |  | 
1.22 | 0.146 |  | CCNc1cc(F)cc2c1[nH]c1ncc(-c3cnc(N4CCNCC4)nc3)c(-n3ccc(C(F)(F)F)n3)c12 [Example 1.52, N-ethyl-6-fluoro-3-(2-piperazin-1-ylpyrimidin-5-yl)-4-[3-(trifluoromethyl)pyrazol-1-yl]-9H-pyrido[2,3-b]indol-8-amine] |  | 
1.98 | ≤ 0.098 |  | CCNc1cc(F)cc2c1[nH]c1ncc(-c3cnc(OC4CNC4)nc3)c(-n3ccc(C(F)(F)F)n3)c12 [Example 1.23, 3-[2-(Azetidin-3-yloxy)pyrimidin-5-yl]-N-ethyl-6-fluoro-4-[3-(trifluoromethyl)pyrazol-1-yl]-9H-pyrido[2,3-b]indol-8-amine] |  | 
0.928 | ≤ 0.098 |  | CCNc1cc(F)cc2c1[nH]c1ncc(-c3cncc(CO)c3)c(-n3ccc(C(F)(F)F)n3)c12 [Example 1.36, [5-[8-(Ethylamino)-6-fluoro-4-[3-(trifluoromethyl)pyrazol-1-yl]-9H-pyrido[2,3-b]indol-3-yl]-3-pyridyl]methanol] |  | 
1.62 | 0.108 |  | CNc1cc(F)cc2c1[nH]c1ncc(-c3cnc(OC)nc3)c(-n3ccc(C(F)(F)F)n3)c12 [Example 1.02, 6-Fluoro-3-(2-methoxypyrimidin-5-yl)-N-methyl-4-[3-(trifluoromethyl)pyrazol-1-yl]-9H-pyrido[2,3-b]indol-8-amine] |  | 
1.52 | ≤ 0.098 |  | CCNc1cc(F)cc2c1[nH]c1ncc(-c3cncc(Cc4nnc(C)o4)c3)c(-n3ccc(C(F)(F)F)n3)c12 [Example 1.58, N-ethyl-6-fluoro-3-[5-[(5-methyl-1,3,4-oxadiazol-2-yl)methyl]-3-pyridyl]-4-[3-(trifluoromethyl)pyrazol-1-yl]-9H-pyrido[2,3-b]indol-8-amine] |  | 
1.77 | 0.287 |  | CCNc1cc(F)cc2c1[nH]c1ncc(-c3cnc(NCCOC)nc3)c(-n3ccc(C(F)(F)F)n3)c12 [Example 1.13, N-Ethyl-6-fluoro-3-[2-(2-methoxyethylamino)pyrimidin-5-yl]-4-[3-(trifluoromethyl)pyrazol-1-yl]-9H-pyrido[2,3-b]indol-8-amine] |  | 
1.74 | ≤ 0.098 |  | CCNc1cc(F)cc2c1[nH]c1ncc(-c3cncc(C#N)c3)c(-n3cc(C(N)=O)c(C(F)(F)F)n3)c12 [Example 4.01, 1-(3-(5-Cyanopyridin-3-yl)-8-(ethylamino)-6-fluoro-9H-pyrido[2,3-b]indol-4-yl)-3-(trifluoromethyl)-1H-pyrazole-4-carboxamide] |  | 
 |  |  | CCNc1cc(F)cc2c1[nH]c1ncc(-c3cnc(OC4CCNC4)nc3)c(-n3ccc(C(F)(F)F)n3)c12 (centres unmarked) [Example 1.20, N-Ethyl-6-fluoro-3-(2-pyrrolidin-3-yloxypyrimidin-5-yl)-4-[3-(trifluoromethyl)pyrazol-1-yl]-9H-pyrido[2,3-b]indol-8-amine] | 1.48 | ≤ 0.098
